In patent US7888329B2, “Substituted aryl piperidinylalkynyladenosines as A2AR agonists” (PGxHealth, LLC, priority 2006, dated 2011):
Like-named read-outs stand apart in the source and are kept apart here.

Assays:
[1] = target: T1, human A1 AR (Homo sapiens, UniProt P30542); test: Radioligand competition binding with 125I-ABA, membranes of CHO K1 cells stably expressing the receptor; details: Ki derived from IC50, class symbols
T1 construct: expressed in transfected cells; membranes
T1 sequence (P30542 1-326): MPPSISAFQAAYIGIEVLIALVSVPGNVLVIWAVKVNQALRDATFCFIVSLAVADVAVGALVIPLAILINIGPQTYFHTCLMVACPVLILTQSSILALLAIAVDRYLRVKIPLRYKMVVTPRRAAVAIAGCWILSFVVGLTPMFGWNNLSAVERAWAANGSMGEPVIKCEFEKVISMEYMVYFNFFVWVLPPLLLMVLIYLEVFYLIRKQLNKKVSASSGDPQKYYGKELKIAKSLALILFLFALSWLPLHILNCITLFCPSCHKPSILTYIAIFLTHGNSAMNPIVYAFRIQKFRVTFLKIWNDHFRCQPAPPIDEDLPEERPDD

[2] = target: T2, recombinant human A2A receptors (Homo sapiens, UniProt P29274); test: Radioligand competition binding with 125I-APE or 125I-ZM241385, Sf9 cell membranes; details: 125I-APE or 125I-ZM241385, Sf9 membranes; class symbols
T2 construct: expressed in transfected cells; host or cells: Sf9 insect cells infected with virus; membranes
Summary of the method: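 Membranes (5 μg for A2A; 25 μg for A1) incubated with radioligand at room temperature, 3 h for agonists or 2 h for antagonists, in HE buffer with 1 U/mL adenosine deaminase and 5 mM MgCl2, ± 50 μM GTPγS. Assays ended by filtration; nonspecific binding defined with 50 μM NECA.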

[3] = target: T3, human A3 AR (Homo sapiens, UniProt P0DMS8); test: Radioligand competition binding with 125I-ABA, membranes of HEK 293 cells stably expressing the receptor; details: Ki derived from IC50, class symbols
T3 construct: expressed in transfected cells; membranes
T3 sequence (P0DMS8 1-318): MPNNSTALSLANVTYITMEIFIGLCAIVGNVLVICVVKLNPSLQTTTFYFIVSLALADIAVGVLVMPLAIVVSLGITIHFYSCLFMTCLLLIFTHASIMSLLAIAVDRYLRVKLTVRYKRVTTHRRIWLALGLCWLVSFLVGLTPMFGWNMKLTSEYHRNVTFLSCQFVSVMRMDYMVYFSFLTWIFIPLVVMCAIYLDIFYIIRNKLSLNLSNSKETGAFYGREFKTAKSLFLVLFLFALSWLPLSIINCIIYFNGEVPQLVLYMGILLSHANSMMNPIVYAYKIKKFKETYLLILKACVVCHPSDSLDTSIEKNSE
Summary of the method: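 Triplicate binding with 25 μg membrane protein and 0.5-1 nM agonist radioligand in HE buffer with 1 U/mL adenosine deaminase and 5 mM MgCl2, ±50 μM GTPγS, 3 h at room temperature, then filtration. Nonspecific binding with 50 μM NECA; Ki from IC50 corrected for radioligand and competitor depletion.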

[4] = tested on: Purified human neutrophils; test: Luminol enhanced chemiluminescence (neutrophil oxidative activity), fMLP stimulated; format: cell-based
[5] = Homo sapiens, Neutrophil, read-out: Functional
[6] = Homo sapiens, Neutrophil, read-out: Functional (nM)
[7] = EC50 of peak chemiluminescence, human PMN, rolipram 100 nM, fMLP, three donors, class symbols, read-out: Functional

T2 sequence (P29274 whole entry): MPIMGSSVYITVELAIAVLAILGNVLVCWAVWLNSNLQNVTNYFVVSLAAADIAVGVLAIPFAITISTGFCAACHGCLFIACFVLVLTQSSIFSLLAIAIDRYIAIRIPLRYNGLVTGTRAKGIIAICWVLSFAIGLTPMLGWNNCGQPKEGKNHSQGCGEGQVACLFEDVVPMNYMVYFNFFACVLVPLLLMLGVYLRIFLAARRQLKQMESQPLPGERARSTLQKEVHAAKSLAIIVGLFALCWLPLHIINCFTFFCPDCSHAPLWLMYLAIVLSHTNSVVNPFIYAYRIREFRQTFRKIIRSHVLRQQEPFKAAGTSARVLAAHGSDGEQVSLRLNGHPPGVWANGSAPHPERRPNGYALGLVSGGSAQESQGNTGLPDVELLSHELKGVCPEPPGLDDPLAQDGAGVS

Work on `CCNC(=O)[C@H]1O[C@@H](n2cnc3c(N)nc(C#CCC4CCN(C(=O)OCc5ccc([N+](=O)[O-])cc5)CC4)nc32)[C@@H](O)C1O` (stereo partly drawn) [Compound 33, N-Ethyl 2-{3-[1-(4-nitrobenzyloxycarbonyl)-4-piperidinyl]-1-propyn-1-yl}adenosine-5′-uronamide] yielded a Ki [1] of less than 100 nM, a Ki [2] of less than 1 nM and a Ki [3] of less than 10 nM. It also gave an EC50 [4, 5] of less than 10 nM.
Work on `CCNC(=O)[C@H]1O[C@@H](n2cnc3c(N)nc(C#CCC4CCN(C(=O)Oc5ccc(N)cc5)CC4)nc32)[C@@H](O)C1O` (stereo partly drawn) [Compound 34, N-Ethyl 2-{3-[1-(4-aminophenoxycarbonyl)-4-piperidinyl]-1-propyn-1-yl}adenosine-5′-uronamide] yielded a Ki [1] of less than 100 nM, a Ki [2] of less than 10 nM and a Ki [3] of less than 100 nM. The EC50 [4, 5] was less than 1 nM.
Compound `Nc1nc(C#CCC2CCN(C(=O)Oc3ccccc3Cl)CC2)nc2c1ncn2[C@@H]1O[C@H](CO)[C@@H](O)[C@H]1O` [Compound 35, 2-{3-[1-((2-Chloro)phenoxycarbanoyl)piperidin-4-yl]propyn-1-yl}adenosine] has a Ki [1] of less than 100 nM, a Ki [2] of less than 1 nM and a Ki [3] of less than 100 nM. The EC50 [4, 5] was less than 10 nM.
Work on `COc1ccccc1OC(=O)N1CCC(CC#Cc2nc(N)c3ncn([C@@H]4O[C@H](CO)[C@@H](O)[C@H]4O)c3n2)CC1` [Compound 36, 2-{3-[1-((2-Methoxy)phenoxycarbanoyl)piperidin-4-yl]propyn-1-yl}adenosine] yielded a Ki [1] of less than 100 nM, a Ki [2] of less than 1 nM and a Ki [3] of less than 100 nM. For the same compound, the EC50 [4, 5] was less than 10 nM.
For `CCNC(=O)[C@H]1O[C@@H](n2cnc3c(N)nc(CCCC4CCN(C(=O)Oc5ccc(NO)cc5)CC4)nc32)[C@@H](O)C1O` (stereo partly drawn) [Compound 37], the Ki [1] was less than 100 nM, the Ki [2] was less than 1 nM and the Ki [3] was less than 100 nM. It also gave an EC50 [4, 6] of less than 10 nM.
Compound `Nc1nc(CCCC2CCN(C(=O)Oc3ccccc3)CC2)nc2c1ncn2[C@@H]1O[C@H](C(=O)NC2CC2)C(O)[C@@H]1O` (stereo partly drawn) [Compound 38] has a Ki [1] greater than 100 nM, a Ki [2] of less than 100 nM and a Ki [3] greater than 100 nM. For the same compound, the EC50 [4, 6] was less than 100 nM.
`Cc1ccc(OC(=O)N2CCC(CCCc3nc(N)c4ncn([C@@H]5O[C@H](C(=O)NC6CC6)C(O)[C@@H]5O)c4n3)CC2)cc1` (stereo partly drawn) [Compound 39] was tested, and the Ki [1] was greater than 100 nM, the Ki [2] was less than 100 nM and the Ki [3] was greater than 100 nM. For the same compound, the EC50 [4, 6] was less than 100 nM.
`N=C(Oc1ccc(F)cc1)N1CCC(CC#Cc2nc(N)c3ncn([C@@H]4O[C@H](C(=O)NC5CC5)[C@@H](O)[C@H]4O)c3n2)CC1` [Compound 41, N-Cyclopropyl 2-{3-[1-(4-fluorophenyloxycarboxymidyl)-4-piperidinyl]-1-propyn-1-yl}adenosine-5′-uronamide] gave a Ki [1] of less than 100 nM, a Ki [2] of less than 10 nM and a Ki [3] greater than 100 nM. It also gave an EC50 [4, 7] of less than 10 nM.
`N=C(Oc1ccc(Cl)cc1)N1CCC(CC#Cc2nc(N)c3ncn([C@@H]4O[C@H](C(=O)NC5CC5)[C@@H](O)[C@H]4O)c3n2)CC1` [Compound 42, N-Cyclopropyl 2-{3-[1-(4-chlorophenyloxycarboxymidyl)-4-piperidinyl]-1-propyn-1-yl}adenosine-5′-uronamide] was tested, and the Ki [1] was greater than 100 nM, the Ki [2] was less than 10 nM and the Ki [3] was greater than 100 nM. It also gave an EC50 [4, 7] greater than 100 nM.
`Nc1nc(C#CCC2CCN(C(=O)Nc3cccc(Cl)c3)CC2)nc2c1ncn2[C@@H]1O[C@H](C(=O)NC2CC2)C(O)[C@@H]1O` (stereo partly drawn) [Compound 43, N-Cyclopropyl 2-{3-[1-(3-chlorophenyloxycarboxymidyl)-4-piperidinyl]-1-propyn-1-yl}adenosine-5′-uronamide] was tested, and the Ki [1] was less than 100 nM, the Ki [2] was less than 10 nM and the Ki [3] was greater than 100 nM. The EC50 [4, 5] was less than 100 nM.
With `Nc1nc(C#CCC2CCN(C(=O)Nc3ccc(F)cc3)CC2)nc2c1ncn2[C@@H]1O[C@H](CO)C(O)[C@@H]1O` (stereo partly drawn) [Compound 44] the Ki [1] was less than 100 nM, the Ki [2] was less than 10 nM and the Ki [3] was less than 100 nM. It also gave an EC50 [4, 5] greater than 100 nM.
Work on `Nc1nc(C#CCC2CCN(C(=O)Nc3ccc(Cl)cc3)CC2)nc2c1ncn2[C@@H]1O[C@H](CO)C(O)[C@@H]1O` (stereo partly drawn) [Compound 45] yielded a Ki [1] of less than 100 nM, a Ki [2] of less than 10 nM and a Ki [3] of less than 100 nM. It also gave an EC50 [4, 5] greater than 100 nM.
With `Nc1nc(C#CCC2CCN(C(=O)Nc3cccc(Cl)c3)CC2)nc2c1ncn2[C@@H]1O[C@H](CO)C(O)[C@@H]1O` (stereo partly drawn) [Compound 46] the Ki [1] was less than 100 nM, the Ki [2] was less than 10 nM and the Ki [3] was less than 100 nM. The EC50 [4, 5] was less than 100 nM.
With `Cc1ccc(OC(=O)N2CCC(CC#Cc3nc(N)c4ncn([C@@H]5O[C@H](C(=O)NC6CC6)[C@@H](O)[C@H]5O)c4n3)CC2)cc1C` [Compound 47, N-Cyclopropyl 2-{3-[1-(3,4-dimethylphenoxycarbonyl)-4-piperidinyl]-1-propyn-1-yl}adenosine-5′-uronamide] the Ki [1] was less than 100 nM, the Ki [2] was less than 1 nM and the Ki [3] was less than 100 nM. For the same compound, the EC50 [4, 7] was less than 1 nM.
In the case of `CCNC(=O)[C@H]1O[C@@H](n2cnc3c(N)nc(C#CCC4CCN(C(=O)Oc5ccc(Cl)c(Cl)c5)CC4)nc32)[C@@H](O)C1O` (stereo partly drawn) [Compound 49, N-Ethyl 2-{3-[1-(3,4-dichlorophenoxycarbonyl)-4-piperidinyl]-1-propyn-1-yl}adenosine-5′-uronamide], the Ki [1] is reported as less than 100 nM, the Ki [2] is reported as less than 1 nM and the Ki [3] is reported as less than 10 nM. It also gave an EC50 [4, 5] of less than 1 nM.
In the case of `CCNC(=O)[C@H]1O[C@@H](n2cnc3c(N)nc(C#CCC4CCN(C(=O)Oc5ccc(F)c(F)c5)CC4)nc32)[C@@H](O)C1O` (stereo partly drawn) [Compound 50, N-Ethyl 2-{3-[1-(3,4-difluorophenoxycarbonyl)-4-piperidinyl]-1-propyn-1-yl}adenosine-5′-uronamide], the Ki [1] is reported as less than 100 nM, the Ki [2] is reported as less than 1 nM and the Ki [3] is reported as less than 100 nM. For the same compound, the EC50 [4, 5] was less than 1 nM.
`Nc1nc(C#CCC2CCN(C(=O)Oc3ccc(Cl)c(Cl)c3)CC2)nc2c1ncn2[C@@H]1O[C@H](C(=O)NC2CC2)C(O)[C@@H]1O` (stereo partly drawn) [Compound 51, N-Cyclopropyl 2-{3-[1-(3,4-chlorophenoxycarbonyl)-4-piperidinyl]-1-propyn-1-yl}adenosine-5′-uronamide] showed a Ki [1] of less than 100 nM, a Ki [2] of less than 1 nM and a Ki [3] of less than 100 nM. It also gave an EC50 [4, 5] of less than 1 nM.
Work on `Nc1nc(C#CCC2CCN(C(=O)Oc3ccc(F)c(F)c3)CC2)nc2c1ncn2[C@@H]1O[C@H](C(=O)NC2CC2)C(O)[C@@H]1O` (stereo partly drawn) [Compound 52, N-Cyclopropyl 2-{3-[1-(3,4-fluorophenoxycarbonyl)-4-piperidinyl]-1-propyn-1-yl}adenosine-5′-uronamide] yielded a Ki [1] of less than 100 nM, a Ki [2] of less than 1 nM and a Ki [3] of less than 100 nM. The EC50 [4, 5] was less than 1 nM.
Compound `Cc1ccc(OC(=O)N2CCC(CC#Cc3nc(N)c4ncn([C@@H]5O[C@H](CO)[C@@H](O)[C@H]5O)c4n3)CC2)cc1C` [Compound 53, 2-{3-[1-((3,4-Dimethyl)phenoxycarbanoyl)piperidin-4-yl]propyn-1-yl}adenosine] has a Ki [1] of less than 100 nM, a Ki [2] of less than 1 nM and a Ki [3] of less than 100 nM. For the same compound, the EC50 [4, 5] was less than 10 nM.
For `Nc1nc(C#CCC2CCN(C(=O)Oc3ccc(F)c(F)c3)CC2)nc2c1ncn2[C@@H]1O[C@H](CO)[C@@H](O)[C@H]1O` [Compound 54, 2-{3-[1-((3,4-Difluoro)phenoxycarbanoyl)piperidin-4-yl]propyn-1-yl}adenosine], the Ki [1] was less than 100 nM, the Ki [2] was less than 1 nM and the Ki [3] was less than 100 nM. For the same compound, the EC50 [4, 5] was less than 10 nM.
Compound `Nc1nc(C#CCC2CCN(C(=O)Oc3ccc(Cl)c(Cl)c3)CC2)nc2c1ncn2[C@@H]1O[C@H](CO)C(O)[C@@H]1O` (stereo partly drawn) [Compound 55, 2-{3-[1-((3,4-Chloro)phenoxycarbanoyl)piperidin-4-yl]propyn-1-yl}adenosine] has a Ki [1] of less than 100 nM, a Ki [2] of less than 1 nM and a Ki [3] of less than 10 nM. The EC50 [4, 5] was less than 10 nM.
In the case of `Nc1nc(C#CCC2CCN(C(=O)Oc3cccc([N+](=O)[O-])c3)CC2)nc2c1ncn2[C@@H]1O[C@H](C(=O)NC2CC2)C(O)[C@@H]1O` (stereo partly drawn) [Compound 56, N-Cyclopropyl 2-{3-[1-(3-nitrophenoxycarbonyl)-4-piperidinyl]-1-propyn-1-yl}adenosine-5′-uronamide], the Ki [1] is reported as less than 100 nM, the Ki [2] is reported as less than 1 nM and the Ki [3] is reported as greater than 100 nM. For the same compound, the EC50 [4, 5] was less than 1 nM.
`Nc1nc(C#CCC2CCN(C(=O)Oc3ccc(Br)cc3Br)CC2)nc2c1ncn2[C@@H]1O[C@H](C(=O)NC2CC2)C(O)[C@@H]1O` (stereo partly drawn) [Compound 57, N-Cyclopropyl 2-{3-[1-(2,4-bromophenoxycarbonyl)-4-piperidinyl]-1-propyn-1-yl}adenosine-5′-uronamide] was tested, and the Ki [1] was less than 100 nM, the Ki [2] was less than 1 nM and the Ki [3] was less than 100 nM. It also gave an EC50 [4, 5] of less than 10 nM.
In the case of “N-Cyclopropyl 2-{3-[1-((4-amino)benzyloxycarbanoyl)-4-piperidinyl]propyn-1-yl}adenosine-5′-uronamide [Compound 48]”, the Ki [1] is reported as greater than 100 nM, the Ki [2] is reported as less than 10 nM and the Ki [3] is reported as greater than 100 nM. It also gave an EC50 [4, 7] of less than 10 nM.
